Experimental data taken from ChEMBL document CHEMBL3046136, “Evaluation of antidepressant-like effect of 2-pyrazoline derivatives” (Med Chem Res, 2010).

Key:
Mus musculus [1] = test: Toxicity in Mus musculus albino (mouse) assessed as increase in horizontal activity at 100 mg/kg, ip; format: organism-based; design: dose 100 mg/kg, route intraperitoneal; conditions: in vivo
Mus musculus [2] = test: Toxicity in Mus musculus albino (mouse) assessed as increase in total distance travelled at 100 mg/kg, ip; format: organism-based; design: dose 100 mg/kg, route intraperitoneal; conditions: in vivo
Mus musculus [3] = test: Toxicity in Mus musculus albino (mouse) assessed as resting time at 100 mg/kg, ip; format: organism-based; design: dose 100 mg/kg, route intraperitoneal; conditions: in vivo
Mus musculus [4] = test: Antidepressant-like activity in Mus musculus albino (mouse) assessed as immobility time at 100 mg/kg, ip measured after 30 min by forced swim test (reference value: 167 +/- 17 sec); format: functional; conditions: route intraperitoneal
Mus musculus [5] = test: Antidepressant-like activity in Mus musculus albino (mouse) assessed as latency for first immobilization at 100 mg/kg, ip measured after 30 min by forced swim test (reference value: 68 +/- 13 sec); format: functional; conditions: route intraperitoneal
Mus musculus [6] = test: Toxicity in Mus musculus albino (mouse) assessed as decrease in horizontal activity at 100 mg/kg, ip; format: organism-based; design: dose 100 mg/kg, route intraperitoneal; conditions: in vivo
Mus musculus [7] = test: Toxicity in Mus musculus albino (mouse) assessed as decrease in total distance travelled at 100 mg/kg, ip; format: organism-based; design: dose 100 mg/kg, route intraperitoneal; conditions: in vivo
Mus musculus [8] = test: Toxicity in Mus musculus albino (mouse) assessed as resting time at 10 mg/kg, ip; format: organism-based; design: dose 10 mg/kg, route intraperitoneal; conditions: in vivo
Mus musculus [9] = test: Toxicity in Mus musculus albino (mouse) assessed as increase in horizontal activity at 10 mg/kg, ip; format: organism-based; design: dose 10 mg/kg, route intraperitoneal; conditions: in vivo
Mus musculus [10] = test: Toxicity in Mus musculus albino (mouse) assessed as increase in total distance travelled at 10 mg/kg, ip; format: organism-based; design: dose 10 mg/kg, route intraperitoneal; conditions: in vivo

SMILES | Activity (Mus musculus [1]) | Activity (Mus musculus [2]) | Activity (Mus musculus [3]) [%] | Time (Mus musculus [4]) [s] | Time (Mus musculus [5]) [s] | Activity (Mus musculus [6]) | Activity (Mus musculus [7]) | Activity (Mus musculus [8]) [%] | Activity (Mus musculus [9]) | Activity (Mus musculus [10])
O=C(CSC(=S)N1CCOCC1)N1N=C(c2cccs2)CC1c1ccccc1 (stereo not drawn) | Toxic | Toxic | 77 | 148 | 73 | – | – | – | – | –
O=C(CSC(=S)N1CCSCC1)N1N=C(c2cccs2)CC1c1ccccc1 (stereo not drawn) | Toxic | Toxic | 73 | 84 | 72 | – | – | – | – | –
Cc1ccc(C2CC(c3cccs3)=NN2C(=O)CSC(=S)N2CCOCC2)cc1 (stereo not drawn) | – | – | 89 | 129 | 99 | Toxic | Toxic | – | – | –
Cc1ccc(C2CC(c3cccs3)=NN2C(=O)CSC(=S)N2CCSCC2)cc1 (stereo not drawn) | – | – | 81 | 113 | 60 | – | – | – | – | –
COc1ccc(C2CC(c3cccs3)=NN2C(=O)CSC(=S)N2CCOCC2)cc1 (stereo not drawn) | – | – | 84 | 139 | 94 | – | – | – | – | –
COc1ccc(C2CC(c3cccs3)=NN2C(=O)CSC(=S)N2CCSCC2)cc1 (stereo not drawn) | Toxic | Toxic | 72 | 134 | 80 | – | – | – | – | –
O=C(CSC(=S)N1CCOCC1)N1N=C(c2cccs2)CC1c1ccc(Cl)cc1 (stereo not drawn) | – | – | 80 | 112 | 36 | – | – | – | – | –
O=C(CSC(=S)N1CCSCC1)N1N=C(c2cccs2)CC1c1ccc(Cl)cc1 (stereo not drawn) | – | – | 80 | 136 | 77 | Toxic | Toxic | – | – | –
N[C@@H]1C[C@H]1c1ccccc1.N[C@H]1C[C@@H]1c1ccccc1 (racemic) [TRANYLCYPROMINE] | – | – | – | – | – | – | – | 89 | – | –
CN(C)CCCN1c2ccccc2CCc2ccc(Cl)cc21 [CLOMIPRAMINE] | – | – | – | – | – | – | – | 73 | Toxic | Toxic
